In patent US11891397B1, “Pyrido[4′,3′:4,5]pyrrolo[3,2-c][1,7]naphthyridin-10-one compounds as CK2 inhibitors” (KING FAISAL UNIVERSITY, priority 2023, dated 2024):

Columns and labels:
HL60 (leukemia) = test: In vitro cytotoxic activity MTT assay, HL60; format: cell-based; conditions: Homo sapiens, HL-60, 96 hours exposure, read-out: IC50, 50% inhibition of cell proliferation
Protocol: (§1) Compounds 1-16 were screened for their in vitro cytotoxic activity utilizing a 3-(4,5-dimethyl-thiazol-2-yl)-2,5-diphenyltetrazolium bromide (MTT) assay against selected cancer human cell lines consisting of PC3 (prostate), HCT116 (colon), A375 (melanoma), H1299 (lung), MIAPaCa-2 (pancreas), HL60 (leukemia), MCF7 (breast), MDA-MB-231 (breast) (T. Mosmann, J. Immunol. Meth., 1983, 65, 55-63). The cells were cultured at 37° C. in RMPI1640 medium supplemented with 10% fetal bovine serum, 50 IU/mL penicillin, and 50 μg/mL streptomycin in a 5% CO2 incubator. All cells were sub-cultured 3 times/week by trypsinisation. Viable cells were seeded and allowed to adhere for 12 h before a test drug was added in 96-well plates at an initial density of 1.0×10^5 cells/mL. Tumour cell lines were separately exposed to various concentrations of the tested compounds followed by incubation at a temperature of 37° C. during 96 h inside a medium of fresh RMPI 1640. Cells were subsequently incubated at 37° C. using MTT at 0.5 mg/mL during 4 h. After removal of supernatant, formazan crystals were dissolved in isopropanol and the optical density was measured at 570 nm. CX-4945 was used as a positive control.

H1299 (lung) = test: In vitro cytotoxic activity MTT assay, H1299; format: cell-based; conditions: Homo sapiens, NCI-H1299, 96 hours exposure, read-out: IC50, 50% inhibition of cell proliferation
Protocol: as §1

recombinant human CK2 = biological target: T1, recombinant human CK2 (Homo sapiens, UniProt P68400); test: CK2 Kinase Assay (33P-ATP filter plate); format: biochemical; conditions: final ATP concentration 15 μM, 10 min at 30° C; read-out: protein kinase CK2 IC50
T1 construct: purchased Millipore
Protocol: CK2 Kinase Assay was conducted using the protocol as described in Pierre F. et al; J. Med. Chem. 2011, 54, 635-654. The tested compounds in aqueous solution were added at a volume of 10 μL to a reaction mixture comprising 10 μL of assay dilution buffer (ADB; 20 mM MOPS, pH 7.2, 25 mM β-glycerol phosphate, 5 mM EGTA, 1 mM sodium orthovanadate, and 1 mM dithiothreitol), 10 μL of substrate peptide (RRRDDDSDDD, dissolved in ADB at a concentration of 1 mM), 10 μL of recombinant human CK2 (RROP-holoenzyme, 25 ng dissolved in ADB; Millipore). Reactions were initiated by the addition of 10 μL of ATP solution (90% 75 mMMgCl2, 75 μM ATP (final ATP concentration:15 μM) dissolved in ADB; 10% [γ-33P] ATP (stock 1 mCi/100 μL; 3000 Ci/mmol (Perkin-Elmer) and maintained for 10 min at 30° C. The reactions were quenched with 100 μL of 0.75% phosphoric acid and then transferred to and filtered through a phosphor cellulose filter plate (Millipore). After washing each well five times with 0.75% phosphoric acid, the plate was dried under vacuum for 5 min and, following the addition of 15 μL of scintillation fluid to each well, the residual radioactivity was measured using a Wallac luminescence counter. The IC50 values were derived from eight concentrations of test inhibitors.

MCF7 (breast) = test: In vitro cytotoxic activity MTT assay, MCF7; format: cell-based; conditions: Homo sapiens, 96 hours exposure, read-out: IC50, 50% inhibition of cell proliferation
Protocol: as §1

PC3 (prostate) = test: In vitro cytotoxic activity MTT assay, PC3; format: cell-based; conditions: Homo sapiens, 96 hours exposure, read-out: IC50, 50% inhibition of cell proliferation
Protocol: as §1

A375 (melanoma) = test: In vitro cytotoxic activity MTT assay, A375; format: cell-based; conditions: Homo sapiens, A-375, 96 hours exposure, read-out: IC50, 50% inhibition of cell proliferation
Protocol: as §1

HCT116 (colon) = test: In vitro cytotoxic activity MTT assay, HCT116; format: cell-based; conditions: Homo sapiens, HCT-116, 96 hours exposure, read-out: IC50, 50% inhibition of cell proliferation
Protocol: as §1

MIAPaCa-2 (pancreas) = test: In vitro cytotoxic activity MTT assay, MIAPaCa-2; format: cell-based; conditions: Homo sapiens, MIA PaCa-2, 96 hours exposure, read-out: IC50, 50% inhibition of cell proliferation
Protocol: as §1

MDA-MB-231 (breast) = test: In vitro cytotoxic activity MTT assay, MDA-MB-231; format: cell-based; conditions: Homo sapiens, 96 hours exposure, read-out: IC50, 50% inhibition of cell proliferation
Protocol: as §1

T1 sequence (P68400 whole entry): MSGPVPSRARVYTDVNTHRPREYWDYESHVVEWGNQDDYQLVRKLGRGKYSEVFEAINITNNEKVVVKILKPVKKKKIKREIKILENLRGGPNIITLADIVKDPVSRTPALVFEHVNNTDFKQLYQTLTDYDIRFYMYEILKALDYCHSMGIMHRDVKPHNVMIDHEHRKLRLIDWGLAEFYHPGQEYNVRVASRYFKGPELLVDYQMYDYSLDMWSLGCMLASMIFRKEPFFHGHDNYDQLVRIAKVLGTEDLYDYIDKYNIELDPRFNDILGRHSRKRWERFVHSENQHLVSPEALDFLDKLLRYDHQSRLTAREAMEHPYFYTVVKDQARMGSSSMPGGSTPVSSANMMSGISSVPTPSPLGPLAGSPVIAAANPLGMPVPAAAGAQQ
T1 sequence (P67870 whole entry partner): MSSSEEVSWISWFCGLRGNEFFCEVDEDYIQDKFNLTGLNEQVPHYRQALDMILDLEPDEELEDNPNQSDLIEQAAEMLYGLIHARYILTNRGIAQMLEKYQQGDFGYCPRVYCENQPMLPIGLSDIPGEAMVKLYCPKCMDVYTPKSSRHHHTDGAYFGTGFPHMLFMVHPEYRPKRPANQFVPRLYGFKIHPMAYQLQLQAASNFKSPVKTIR

- IC50 (recombinant human CK2): 45 nM
SMILES: O=c1[nH]ccc2c1[nH]c1c3ccncc3nc(Nc3cccc(Cl)c3)c21 [Compound 1, 6-((3-chlorophenyl)amino)-9,11-dihydro-10H-pyrido[4′,3′:4,5]pyrrolo[3,2-c][1,7]naphthyridin-10-one]
- IC50 (HL60 (leukemia)): 4600 nM
- IC50 (H1299 (lung)): 2700 nM
- IC50 (MCF7 (breast)): 5400 nM
- IC50 (PC3 (prostate)): 1800 nM
- IC50 (A375 (melanoma)): 3900 nM
- IC50 (HCT116 (colon)): 2100 nM
- IC50 (MIAPaCa-2 (pancreas)): 1200 nM
- IC50 (MDA-MB-231 (breast)): 4000 nM
